Data reported in patent publication US9580459B2, “Water-soluble ursodeoxycholic acid prodrugs” (Metselex, Inc., priority 2013, dated 2017).

Assays:
primary rat hepatocytes [1] = assay: TGFβ1-induced cytotoxicity (LDH release); type: cell-based; conditions: 100 μM, 12 hours, then 1 nmol/L TGF-β1 24 hours; alkaline phosphatase added for compound 19d; p<0.05
Experimental: To compare the in vitro cytoprotective effects of the new prodrugs with UDCA, an alcohol-linked phosphate prodrug (the 3-substituted prodrug compound 3) and the POMC prodrug compound 19d were evaluated for their ability to modulate TGFβ1-induced cytotoxicity. […] Therefore, AP was added to the culture medium whenever assessing the cytoprotective potential of compound 19d. The ability of compound 3 and compound 19d to inhibit TGFβ1-induced general cell death, as compared with UDCA were analyzed. […] Results are expressed as means±SEM of at least three different experiments (*p<0.01 from respective control; §p<0.05 from respective TGFβ). […] Similarly as before, UDCA, compound 3 and compound 19d, inhibited TGFβ1-induced cytotoxicity by about 40, 30 and 60%, respectively (p<0.05).
In another example, primary rat hepatocytes were isolated from male rats (100-150 g) by collagenase perfusion. Briefly, rats were anesthetized with phenobarbital sodium (100 mg/kg body weight) injected into the peritoneal cavity. […] Cell viability was determined by trypan blue exclusion and was typically 80-85%. […]
In another example, LDH, a stable cytosolic enzyme, is released to cell culture media following cell lysis, and can be used as a marker of cytotoxicity. […] Finally, absorbance was measured at 490 nm, with 690 nm as reference, using a Bio-Rad model 680-microplate reader (Bio-Rad Laboratories, Hercules, Calif.).

primary rat hepatocytes [2] = assay: TGFβ1-induced loss of cellular viability (CellTiter-Fluor viability assay); type: cell-based; conditions: presence or absence of 3 U/ml alkaline phosphatase; preliminary results
[3] = stability in Tris glycine buffer without enzyme (31P NMR); type: physicochemical; conditions: 0.100 M Tris glycine buffer with 1.0 mM ZnCl2 and 1.0 mM MgCl2, 1 h, no enzyme
Experimental: Compound 19d (10.0 mg, 0.016 mmol) or compound 3 (8.7 mg, 0.016 mmol) was dissolved in 0.6 mL of a 0.100 M Tris glycine buffer solution containing 1.0 mM ZnCl2 and 1.0 mM MgCl2. […] 50 μL of the previously prepared AP stock solution was further diluted by addition to 0.950 mL of a 0.100 M Tris glycine buffer containing 1.0 mM ZnCl2 and 1.0 mM MgCl2. […] A series of 42 inverse-gated decoupled ^31P NMR's were taken (24 scans each, approximately one minute acquisition time). Conversion (%) was determined from the relative integration of the starting material and product peaks, NMR time stamps were used to determine time. Each experiment was repeated three times.

[4] = aqueous solubility of the prodrugs; type: physicochemical
Experimental: To obtain the 7-substituted phosphate ester prodrug of UDCA, benzyl ester 1 was treated with benzyl chloroformate and pyridine in dichloromethane as shown in FIG. 2. This led to a mixture of products, including 3-Cbz-protected alcohol (41%) (compound 4), 7-Cbz-protected alcohol (10%) (compound 5), and recovered starting material (41%). These products were readily separated by column chromatography, which allowed definitive confirmation of the regiochemistry of the prodrugs by ^1H NMR analysis, as the signal of the proton next to the Cbz-protected alcohol (Ha in FIG. 2) was a dddd in the major mono-substituted product (consistent with compound 4) and a ddd in the minor mono-substituted product (consistent with compound 5). Compound 4 was then converted into a 7-substituted phosphate ester prodrug (compound 7) using dibenzyl N,N-diethylphosphoramidite followed by oxidation with H2O2 and then Pd/C catalyzed debenzylation. Similar standard conditions converted compound 5 into the same 3-substituted phosphate ester prodrug (compound 3) that was obtained in FIG. 1. Both phosphate prodrugs (compound 3 and compound 7) were highly aqueously soluble, rapidly dissolving at all concentrations tested (up to 20 mg/mL), and were stable in solution for extended periods of time (>6 months) without any apparent decomposition. […]

[5] = target: T1, alkaline phosphatase from bovine intestinal mucosa (Bos taurus, UniProt P19111); assay: alkaline phosphatase catalyzed activation monitored by inverse-gated decoupled 31P NMR; type: biochemical; conditions: in vitro, Tris glycine buffer
T1 construct: alkaline phosphatase from bovine intestinal mucosa; purchased Sigma-Aldrich P5521-2KU; host or cells: bovine intestinal mucosa (tissue-derived)
T1 sequence (P19111 20-506 limits assumed): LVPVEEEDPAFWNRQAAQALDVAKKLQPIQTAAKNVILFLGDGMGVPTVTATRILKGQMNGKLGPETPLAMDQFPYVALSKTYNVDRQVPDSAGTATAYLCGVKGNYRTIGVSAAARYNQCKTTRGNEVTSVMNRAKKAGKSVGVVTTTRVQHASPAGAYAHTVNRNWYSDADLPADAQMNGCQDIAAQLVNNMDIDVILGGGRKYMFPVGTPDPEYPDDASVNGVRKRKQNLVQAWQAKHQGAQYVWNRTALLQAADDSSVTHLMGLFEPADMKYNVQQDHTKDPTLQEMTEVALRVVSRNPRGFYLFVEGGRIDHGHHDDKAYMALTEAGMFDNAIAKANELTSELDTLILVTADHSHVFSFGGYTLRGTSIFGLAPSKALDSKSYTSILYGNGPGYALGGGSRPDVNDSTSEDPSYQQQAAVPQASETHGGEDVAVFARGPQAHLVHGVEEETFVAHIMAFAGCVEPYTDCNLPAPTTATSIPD
Experimental: To determine whether the POMC prodrug was indeed activated under in vitro conditions faster than a prodrug where the phosphate moiety is directly linked to an alcohol, a series of experiments were conducted monitoring the alkaline phosphatase catalyzed activation of the prodrugs compound 19d and compound 3 by inverse-gated decoupled ^31P NMR. […] Each data point represents the mean of three separate experiments±standard error of the mean (SEM).
In another example, alkaline phosphatase from bovine intestinal mucosa (P5521-2KU, Sigma-Aldrich, St. Louis, Mo.) was dissolved in 2.0 mL of a 0.100 M […] glycine buffer containing 1.0 mM ZnCl2 and 1.0 mM MgCl2. This stock solution was stored at 4° C. between uses.
Compound 19d (10.0 mg, 0.016 mmol) or compound 3 (8.7 mg, 0.016 mmol) was dissolved in 0.6 mL of a 0.100 M Tris glycine buffer solution containing 1.0 mM ZnCl2 and 1.0 mM MgCl2. […] 50 μL of the previously prepared AP stock solution was further diluted by addition to 0.950 mL of a 0.100 M Tris glycine buffer containing 1.0 mM ZnCl2 and 1.0 mM MgCl2. 10.0 μL of this diluted AP solution was added to the prodrug solution by syringe. […] Conversion (%) was determined from the relative integration of the starting material and product peaks, NMR time stamps were used to determine time. […]

| Compound | inhibition of TGFβ1-induced cytotoxicity (LDH release) (primary rat hepatocytes [1]) | effect of alkaline phosphatase (AP) in the culture medium on cytoprotective properties (primary rat hepatocytes [2]) | decomposition by 31P NMR in buffer [3] | aqueous solubility [4] [mg/mL] | rate of release of UDCA by alkaline phosphatase (compared with compound 3) [5] |
| --- | --- | --- | --- | --- | --- |
| C[C@H](CCC(=O)O)[C@H]1CC[C@H]2[C@@H]3[C@@H](O)C[C@@H]4C[C@H](O)CC[C@]4(C)[C@H]3CC[C@]12C [UDCA, Ursodeoxycholic acid] | about 40% |  |  |  |  |
| C[C@H](CCC(=O)O)[C@H]1CC[C@H]2[C@@H]3[C@@H](O)C[C@@H]4C[C@H](OP(=O)([O-])[O-])CC[C@]4(C)[C@H]3CC[C@]12C.[Na+].[Na+] [compound 3, 3-(Phosphonatooxy)-ursodeoxycholic acid sodium salt] | ~30% | does not significantly change | Neither compound showed decomposition |  |  |
| C[C@H](CCC(=O)O)[C@H]1CC[C@H]2[C@@H]3[C@@H](OP(=O)([O-])[O-])C[C@@H]4C[C@H](O)CC[C@]4(C)[C@H]3CC[C@]12C.[Na+].[Na+] [compound 7, 7-(Phosphonatooxy)-ursodeoxycholic acid sodium salt] |  |  |  | ≥ 20 |  |
| CC(CCC(=O)OCOP(=O)(O)O)C1CCC2C3C(O)CC4CC(O)CCC4(C)C3CCC12C (stereo not shown) [compound 19, ursodeoxycholic acid phosphonooxymethoxy ester] |  | required activation by exogenous alkaline phosphatase |  |  | faster |
